Molecules are shown by their SMILES.

Six compounds from article PMC12216625, “Identification of nanomolar adenosine A2A receptor ligands using reinforcement learning and structure-based drug design” (Nature Communications, 2025) can be followed below.

The target in one test is T1, A2A receptor (human, wild-type) (Homo sapiens, UniProt P29274).
T1 construct: gene ADORA2A; wild-type human A2A; BacMam-transfected cells (CHO-K1 for the cAMP assay)
T1 sequence (P29274 whole entry): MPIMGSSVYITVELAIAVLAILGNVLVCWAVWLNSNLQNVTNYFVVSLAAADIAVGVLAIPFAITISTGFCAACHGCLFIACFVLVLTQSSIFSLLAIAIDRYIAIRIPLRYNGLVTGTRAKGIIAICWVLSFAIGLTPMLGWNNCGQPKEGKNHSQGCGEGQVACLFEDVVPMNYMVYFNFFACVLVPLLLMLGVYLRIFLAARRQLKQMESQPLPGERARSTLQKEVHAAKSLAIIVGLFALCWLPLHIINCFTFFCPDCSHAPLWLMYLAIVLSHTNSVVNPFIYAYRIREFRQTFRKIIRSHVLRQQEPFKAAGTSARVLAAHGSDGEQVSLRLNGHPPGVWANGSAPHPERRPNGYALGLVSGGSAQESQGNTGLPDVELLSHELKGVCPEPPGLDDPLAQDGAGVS
Description: cAMP accumulation HTRF, antagonist mode. The class given is cell-based. Conditions: read-out: A2A / pIC50 (± SD) (converted). An excerpt:
cAMP accumulation HTRF, antagonist mode on A2A receptor (human, wild-type)
As for `Nc1nc(-c2cccc(-n3ccnc3)n2)nc(-c2ccco2)n1` [compound 7, Compound 7], the IC50 is 0.0251 µM.

In the case of `Nc1nc(-c2ccco2)nc2c1ccn2-c1ccncc1` [compound 9, Compound 9], the IC50 was 0.02 µM.

For another test, the target named is T1, A2A receptor (human, wild-type). The test is described as follows: cAMP accumulation HTRF, agonist mode (compound alone). The class given is cell-based. Conditions: read-out: A2A / pEC50 (± SD) (converted). An excerpt: cAMP accumulation HTRF, agonist mode (compound alone) on A2A receptor (human, wild-type)
In general terms: Cyclic AMP is a second messenger, typically raised through Gs and lowered through Gi signalling.
As for `Nc1nc(-c2cccc(-n3ccnc3)n2)nc(-c2ccco2)n1` [compound 7, Compound 7], the EC50 was 0.02 µM.

In the case of `Nc1nc(-c2ccc(O)cc2)c2cc(F)ccc2n1` [compound 5, Compound 5], the EC50 is 0.0501 µM. `Nc1nc(-c2ccco2)nc2c1ccn2-c1ccncc1` [compound 9, Compound 9]: the EC50 is 0.316 µM.

The next test has the same target. Description: [3H]-ZM241385 radioligand competition, filtration. The format is binding. Conditions: read-out: A2A / pKi (± SD) (converted). An excerpt:
[3H]-ZM241385 radioligand competition, filtration on A2A receptor (human, wild-type)
(In general: Displacement assays read how much labelled ligand stays bound in the presence of the test substance.)
Consider `Nc1cc(NCc2ccccc2F)nc(-c2ccccn2)n1` [compound 3, Compound 3], for which the Ki is 1.26 µM. Same read-out and setting: then `Nc1nc(-c2cccc(-n3ccnc3)n2)nc(-c2ccco2)n1` [compound 7, Compound 7], with 0.0501 µM; and `Nc1nc2cc(-c3ccoc3)cc(-c3ccco3)n2n1` [compound 6, Compound 6], with 1.26 µM.

For `Cc1ccc(-c2nc(N)nn2-c2ccccc2)cc1` [compound 1, Compound 1], the Ki was 15.8 µM. The same measure, in the same setting: under `Nc1nc(-c2ccc(O)cc2)c2cc(F)ccc2n1` [compound 5, Compound 5] stands 2 µM; under `Nc1nc(-c2ccco2)nc2c1ccn2-c1ccncc1` [compound 9, Compound 9], 0.0316 µM.
